Experimental data as given in paper PMC11142920, “De novo-designed transmembrane proteins bind and regulate a cytokine receptor” (Nature Chemical Biology, 2024).

Experiments:
mEpoR = experiment: EPO-induced proliferation (growth inhibition) of BaF3/mEpoR cells expressing TM proteins; assay type: cell-based, mouse; conditions: 0.06 U ml^−1 EPO, IL-3-free, 6-8 days; versus empty vector
Description: Mouse IL-3-dependent BaF3 and derivative cells were maintained in RPMI-10 medium: RPMI-1640 supplemented with 10% heat-inactivated FBS, 5% WEHI-3B cell-conditioned medium (as the source of IL-3), 4 mM L-glutamine, 0.06 mM β-mercaptoethanol and 1⨯ P-S. BaF3 cells expressing mEpoR, hEpoR and all EpoR mutants and chimeras were generated by infecting BaF3 cells with pMSCV-neo vector containing the desired HA-tagged EpoR gene. BaF3 cells (5 ⨯ 10^5) were washed with PBS and then resuspended in 500 μl of RPMI-10 medium with 4 μg ml^−1 polybrene. […]
For proliferation assays, 2 ⨯ 10^5 BaF3 and derivative cells expressing the appropriate genes were washed in PBS three times to remove IL-3. […] Viable cells were counted 6−8 days after IL-3 removal. […] The statistical significance of differences between control and experimental samples was evaluated by either one-tailed or two-tailed Student’s t-tests with unequal variance, performed using the T.TEST function in Microsoft Excel (2013).
For proliferation assays, BaF3/mEpoR/tTA cells expressing CHAMP proteins were first cultured in 10 ml of RPMI-10/IL-3 medium in the absence of Dox or supplemented with 100 or 200 pg ml^−1 Dox for 48 h. Then, 2 ⨯ 10^5 BaF3 cells were washed in PBS, resuspended in IL-3-free medium supplemented with the same concentration of Dox and 0.06 U ml^−1 human EPO, and counted as described above.

mEpoR−GFP1-10 = experiment: Split GFP complementation with mEpoR−GFP1-10; assay type: cell-based, mouse; conditions: flow cytometry, BaF3 cells
ErbB2−GFP1-10 = experiment: Split GFP complementation with ErbB2−GFP1-10; assay type: cell-based; conditions: flow cytometry, BaF3 (tTa) cells, 1 pM doxycycline
[1] = molecular target: mEpoR-TM2 (isotope-labeled mEpoR TM domain fragment) (mouse); experiment: SDS-PAGE; mEpoR TM peptide on SDS-PAGE, non-covalent monomer and dimer bands
[2] = molecular target: GFP11−CHAMP-1 (Flag tag, GFP11, GGG linker, CHAMP-1); experiment: split reporter (BiFC, NanoBiT); split GFP complementation in BaF3 cells co-expressing a GFP1-10 fusion and a GFP11 fusion; mean fluorescence intensity by flow cytometry
mEpoR TM domain = conditions: parallel self-interaction; ref [25]–[28]; cited from earlier work
Source text: EpoR is a prototypical cytokine receptor whose TM domain contributes to both receptor homodimerization[25]–[27] and conformational coupling upon ligand binding[28],[29], activating the Janus kinase (JAK)−signal transducer and activator of transcription (STAT) pathway. […] In model membranes, designed TM peptides hosting SXXLXXX sequence repeats spontaneously homodimerize, strongly favoring parallel TM helix geometry like that of ...

MDHLGASLWPQVGSLCLLLAGAAWAPPLDPLILTLSLILVLISLLLTVLALLSHRRALKQKIWPGIPSPESEGPYSNPYENSLIPAAEPLPPSYVACS [mEpoR TM domain mimic protein, type I mEpoR TM domain mimic protein expressed in BaF3 cells]
inhibition of EPO-induced proliferation (in words) (mEpoR): did not show inhibited proliferation

MDHLGASLWPQVGSLCLLLAGAAWERVQLAHHFSEPEITLIIFGVMAGVIGTILLISYGIRRLIGGSGGGGSGGRDHMVLHEYVNAAGIT [glycophorin A, GlycophorinA TM domain construct fused at its c-terminus to GFP11]
fluorescence in mEpoR−GFP1-10 expressing cells (in words) (mEpoR−GFP1-10): fluorescence was not increased

MDHLGASLWPQVGSLCLLLAGAAWPVTFIIATVVGVLLFLILVVVVGILGGSGGGGSGGRDHMVLHEYVNAAGIT [ErbB2 TM domain fusion, ErbB2 TM domain construct fused to GFP11 at its c-terminus]
fluorescence in mEpoR−GFP1-10 expressing cells (in words) (mEpoR−GFP1-10): fluorescence was not increased
complementation of ErbB2−GFP1-10 (ErbB2−GFP1-10): could complement ErbB2−GFP1-10

MRLPGAMPALALKGELLLLSLLLLLEPQISQGLVVTPKVVVISAILALVVLTIISLIILIMLWQKKPRYEIRWKVIESVSCPAPRAEAEDSFL [PDGFβR, unrelated platelet-derived growth factor β receptor TM domain protein construct]
inhibition of EPO-induced proliferation (in words) (mEpoR): did not show inhibited proliferation

mEpoR-TM2 (isotope-labeled mEpoR TM domain fragment) (peptide)
stoichiometry N [1]: 2

B1: mEpoR−GFP1-10 fusion protein (domain or fragment)
chain: APSPSLPDPKFESKAALLASRGSEELLCFTQRLEDLVCFWEEAASSGMDFNYSFSYQLEGESRKSCSLHQAPTVRGSVRFWCSLPTADTSSFVPLELQVTEASGSPRYHRIIHINEVVLLDAPAGLLARRAEEGSHVVLRWLPPPGAPMTTHIRYEVDVSAGNRAGGTQRVEVLEGRTECVLSNLRGGTRYTFAVRARMAEPSFSGFWSAWSEPASLLTASDLDPLILTLSLI
fold MFI over cells expressing mEpoR−GFP1-10 alone or the CHAMP-1 fusion alone [2]: > 4 fold

B2: mEpoR: mouse erythropoietin receptor (target); TM domain (protein)
chain: APSPSLPDPKFESKAALLASRGSEELLCFTQRLEDLVCFWEEAASSGMDFNYSFSYQLEGESRKSCSLHQAPTVRGSVRFWCSLPTADTSSFVPLELQVTEASGSPRYHRIIHINEVVLLDAPAGLLARRAEEGSHVVLRWLPPPGAPMTTHIRYEVDVSAGNRAGGTQRVEVLEGRTECVLSNLRGGTRYTFAVRARMAEPSFSGFWSAWSEPASLLTASDLDPLILTLSLILVLISLLLTVLALLSHRRTLQQKIWPGIPSPESEFEGLFTTHKGNFQLWLLQRDGCLWWSPGSSFPEDPPAHLEVLSEPRWAVTQAGDPGADDEGPLLEPVGSEHAQDTYLVLDKWLLPRTPCSENLSGPGGSVDPVTMDEASETSSCPSDLASKPRPEGTSPSSFEYTILDPSSQLLCPRALPPELPPTPPHLKYLYLVVSDSGISTDYSSGGSQGVHGDSSDGPYSHPYENSLVPDSEPLHPGYVACS
modifications: left off: HA, end not stated, kept
notes: mouse erythropoietin receptor (target); TM domain
homodimerization of mEpoR TM domains (mEpoR TM domain): only weakly homodimerize
